Measurements taken from patent US9796679B2, “Type 4 prepilin peptidase inhibitors and methods of use” (priority 2014, dated 2017).

Target: T1, TcpJ (Vibrio cholerae serotype O1, UniProt A5F385)
T1 construct: made in house; host or cells: E. coli JM109 carrying pCL9 (total membrane fraction)
T1 sequence (A5F385 1-253): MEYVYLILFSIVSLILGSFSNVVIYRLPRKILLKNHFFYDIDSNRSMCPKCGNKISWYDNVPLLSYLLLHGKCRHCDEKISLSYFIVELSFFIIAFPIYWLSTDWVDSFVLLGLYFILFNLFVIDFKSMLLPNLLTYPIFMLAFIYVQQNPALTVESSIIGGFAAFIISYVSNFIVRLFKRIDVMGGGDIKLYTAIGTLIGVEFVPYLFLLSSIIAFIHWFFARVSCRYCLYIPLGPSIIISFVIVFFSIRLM
Assay: In vitro TcpA prepilin cleavage assay with inhibitors
Format: biochemical
Settings: compared to compounds where R is methyl
Protocol: By way of illustration, the effect of inhibitors on the peptidase activity of TcpJ can be determined by incubating the inhibitor with an amount of membrane preparation known to contain 1 unit of activity of TcpJ for 30 minutes at room temperature. The TcpJ/inhibitor mixture is then tested for peptidase activity. Amounts of cleaved TcpA prepilin can be quantitated and applied to the formula: % cleavage=(amount of cleaved TcpA in inhibition assay/amount of cleaved TcpA in no inhibitor control assay)×100.
Membrane preparations were prepared according to a modified cell fractionation protocol (Pfau (1998) J. Bact. 180(17):4724-33). Overnight cultures were placed on ice for 20 minutes then pelleted at 5000×g for 10 minutes. The cell pellet was resuspended in 1 ml 200 mM Tris pH 8.0 to which 1 ml 50 mM Tris pH 8.0, 1 M sucrose, 2 ml water, 20 μl 0.5 M EDTA, and 20 μl lysozyme (10 mg/ml) were added. The cell suspension was allowed to incubate on ice for 30 minutes. Then, 100 μl 1 M MgSO4 was added and the suspension was pelleted at 5000×g for 10 minutes. […]
A membrane preparation from the E. coli strain K38 p3Z-A, pGP1-2, which was determined to contain 0.2 μg TcpA prepilin/μl, was the source of prepilin in the in vitro TcpJ proteases assay instead of purified prepilin. […]

## Nc1cc[n+](Cc2ccc(-c3ccc(C[n+]4ccc(N)c5ccccc54)cc3)cc2)c2ccccc12 [TC-7]
  IC50 value: lower IC50 value compared to compounds where R is methyl
